Measurements from patent US7019019B2, “Matriptase inhibitors and methods of use” (Dendreon Corporation, priority 2002, dated 2006).

How the values were obtained:
Assay type in all cases: biochemical
[1] = target: T1, (Homo sapiens, UniProt Q9UL52); assay: In vitro enzyme assay for specificity: Endothelin 1
T1 sequence (Q9UL52 192-423): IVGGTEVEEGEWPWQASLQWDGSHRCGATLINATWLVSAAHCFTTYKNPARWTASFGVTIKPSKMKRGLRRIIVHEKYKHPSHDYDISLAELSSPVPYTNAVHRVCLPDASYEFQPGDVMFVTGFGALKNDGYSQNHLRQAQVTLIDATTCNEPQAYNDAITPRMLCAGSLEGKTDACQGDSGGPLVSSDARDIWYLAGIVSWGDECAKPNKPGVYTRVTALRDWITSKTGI

[2] = target: T2, Matriptase (Homo sapiens, UniProt Q9Y5Y6); assay: Amidolytic assay for inhibition of serine protease activity of matriptase or MTSP1
T2 sequence (Q9Y5Y6 1-855 C731S): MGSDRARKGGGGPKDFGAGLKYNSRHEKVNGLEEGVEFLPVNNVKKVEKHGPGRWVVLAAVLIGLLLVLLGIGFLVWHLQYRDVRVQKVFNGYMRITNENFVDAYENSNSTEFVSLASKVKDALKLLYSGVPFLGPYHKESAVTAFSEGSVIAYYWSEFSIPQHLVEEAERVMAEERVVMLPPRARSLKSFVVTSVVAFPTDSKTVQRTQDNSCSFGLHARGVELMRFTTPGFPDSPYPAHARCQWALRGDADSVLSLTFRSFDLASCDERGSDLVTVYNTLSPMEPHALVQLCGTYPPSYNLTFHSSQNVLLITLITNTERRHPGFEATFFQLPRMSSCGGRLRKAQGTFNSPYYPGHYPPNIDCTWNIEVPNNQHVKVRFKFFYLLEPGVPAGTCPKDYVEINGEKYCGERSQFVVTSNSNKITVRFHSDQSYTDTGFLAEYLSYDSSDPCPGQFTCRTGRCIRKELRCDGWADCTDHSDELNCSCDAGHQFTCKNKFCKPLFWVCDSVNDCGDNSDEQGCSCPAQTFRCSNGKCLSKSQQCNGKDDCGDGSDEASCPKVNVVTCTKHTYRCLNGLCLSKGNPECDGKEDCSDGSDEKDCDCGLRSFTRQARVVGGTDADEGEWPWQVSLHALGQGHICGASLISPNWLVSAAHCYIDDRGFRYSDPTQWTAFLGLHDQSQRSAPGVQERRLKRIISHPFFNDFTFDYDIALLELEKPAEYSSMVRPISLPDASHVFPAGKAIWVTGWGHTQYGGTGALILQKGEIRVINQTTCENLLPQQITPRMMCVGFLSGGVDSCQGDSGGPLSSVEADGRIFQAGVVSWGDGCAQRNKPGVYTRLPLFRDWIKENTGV

[3] = target: T3, Factor Xa (Homo sapiens, UniProt P00742); assay: Factor Xa chromogenic assay (S-2765); details: read-out: Ki FXa
T3 construct: purchased Enzyme Research Laboratories, Inc. (South Bend, Ind.)
T3 sequence (P00742 235-488 limits assumed): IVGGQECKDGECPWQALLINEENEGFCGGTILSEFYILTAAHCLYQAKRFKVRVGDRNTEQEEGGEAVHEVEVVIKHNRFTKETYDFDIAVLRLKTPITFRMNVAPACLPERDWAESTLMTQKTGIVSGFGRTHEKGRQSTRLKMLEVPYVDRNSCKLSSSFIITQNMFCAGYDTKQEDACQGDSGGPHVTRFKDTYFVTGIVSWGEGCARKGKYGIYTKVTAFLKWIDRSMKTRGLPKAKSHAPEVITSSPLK
T3 sequence (P00742 41-179 partner limits assumed): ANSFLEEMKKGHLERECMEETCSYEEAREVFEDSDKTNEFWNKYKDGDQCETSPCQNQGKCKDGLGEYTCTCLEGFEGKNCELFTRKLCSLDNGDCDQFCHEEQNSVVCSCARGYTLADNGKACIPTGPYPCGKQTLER
Procedure: (§1) The ability of compounds to act as a selective inhibitor of matriptase activity was assessed by determining the concentration of test-compound which inhibited the activity of matriptase by 50%, (IC50) as described in Example A, and comparing IC50 value for matriptase to that determined for all or some of the following serine proteases: thrombin, recombinant tissue plasminogen activator (rt-PA), plasmin, activated protein C, chymotrypsin, factor Xa and trypsin.
(§2) The buffer used for all assays was HBSA (10 mM HEPES, pH 7.5, 150 mM sodium chloride, 0.1% bovine serum albumin).
The assay for IC50 determinations was conducted by combining in appropriate wells of a Corning microtiter plate, 50 microliters of HBSA, 50 microliters of the test compound at a specified concentration (covering a broad concentration range) diluted in HBSA (or HBSA alone for V0 (uninhibited velocity) measurement), and 50 microliters of the enzyme diluted in HBSA. Following a 30 minute incubation at ambient temperature, 50 microliters of the substrate at the concentrations specified below were added to the wells, yielding a final total volume of 200 microliters. The initial velocity of chromogenic substrate hydrolysis was measured by the change in absorbance at 405 nm using a Thermo Max® Kinetic Microplate Reader over a 5 minute period in which less than 5% of the added substrate was utilized. […]
Factor Xa catalytic activity was determined using the chromogenic substrate S-2765 (N-benzyloxycarbonyl-D-arginine-L-glycine-L-arginine-p-nitro aniline), obtained from DiaPharma Group (Franklin, Ohio). All substrates were reconstituted in deionized water prior to use. […] Purified human Factor X was obtained from Enzyme Research Laboratories, Inc. (South Bend, Ind.) and Factor Xa (FXa) was activated and prepared from it as described [Bock, P. E., Craig, P. A., Olson, S. T., and Singh, P. Arch. Biochem. Biophys. 273:375-388 (1989)]. The enzyme was diluted into HBSA prior to assay in which the final concentration was 0.25 nM.

[4] = target: α-thrombin (Homo sapiens, UniProt P00734); assay: Thrombin (fIIa) chromogenic assay (Pefachrome t-PA)
Procedure: as §1, §2
(§3) The assay for IC50 determinations was conducted by combining in appropriate wells of a Corning microtiter plate, 50 microliters of HBSA, 50 microliters of the test compound at a specified concentration (covering a broad concentration range) diluted in HBSA (or HBSA alone for V0 (uninhibited velocity) measurement), and 50 microliters of the enzyme diluted in HBSA. Following a 30 minute incubation at ambient temperature, 50 microliters of the substrate at the concentrations specified below were added to the wells, yielding a final total volume of 200 microliters. The initial velocity of chromogenic substrate hydrolysis was measured by the change in absorbance at 405 nm using a Thermo Max® Kinetic Microplate Reader over a 5 minute period in which less than 5% of the added substrate was utilized. The concentration of added inhibitor which caused a 50% decrease in the initial rate of hydrolysis was defined as the IC50 value.
Enzyme activity was determined using the chromogenic substrate, Pefachrome t-PA (CH3SO2-D-hexahydrotyrosine-glycyl-L-Arginine-p-nitroaniline, obtained from Pentapharm Ltd.). The substrate was reconstituted in deionized water prior to use.
The initial velocity of Pefachrome t-PA hydrolysis was measured by the change in absorbance at 405 nm using a Thermo Max® Kinetic Microplate Reader over a 5 minute period in which less than 5% of the added substrate was utilized. The concentration of added inhibitor which caused a 50% decrease in the initial rate of hydrolysis was defined as the IC50 value.

[5] = target: T4, (Homo sapiens, UniProt Q9BYE2); assay: In vitro enzyme assay for specificity: Endothelin 2
T4 sequence (Q9BYE2 326-586): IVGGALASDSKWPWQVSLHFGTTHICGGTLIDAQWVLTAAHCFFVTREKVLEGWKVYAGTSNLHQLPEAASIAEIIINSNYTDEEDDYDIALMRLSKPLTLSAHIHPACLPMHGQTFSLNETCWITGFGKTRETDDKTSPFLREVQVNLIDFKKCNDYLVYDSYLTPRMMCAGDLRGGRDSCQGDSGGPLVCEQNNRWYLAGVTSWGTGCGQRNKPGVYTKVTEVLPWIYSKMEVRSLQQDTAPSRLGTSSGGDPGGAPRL

[6] = target: plasmin (Homo sapiens, UniProt P00747); assay: Plasmin chromogenic assay (S-2366)
Sequence of plasmin (P00747 581-810 limits assumed): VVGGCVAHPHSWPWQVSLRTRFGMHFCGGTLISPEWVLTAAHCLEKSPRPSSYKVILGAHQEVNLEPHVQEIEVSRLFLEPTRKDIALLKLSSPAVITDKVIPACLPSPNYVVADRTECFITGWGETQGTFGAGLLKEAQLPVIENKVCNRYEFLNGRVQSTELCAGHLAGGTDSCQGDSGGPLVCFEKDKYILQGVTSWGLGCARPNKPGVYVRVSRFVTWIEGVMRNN
Sequence of plasmin (P00747 97-580 partner limits assumed): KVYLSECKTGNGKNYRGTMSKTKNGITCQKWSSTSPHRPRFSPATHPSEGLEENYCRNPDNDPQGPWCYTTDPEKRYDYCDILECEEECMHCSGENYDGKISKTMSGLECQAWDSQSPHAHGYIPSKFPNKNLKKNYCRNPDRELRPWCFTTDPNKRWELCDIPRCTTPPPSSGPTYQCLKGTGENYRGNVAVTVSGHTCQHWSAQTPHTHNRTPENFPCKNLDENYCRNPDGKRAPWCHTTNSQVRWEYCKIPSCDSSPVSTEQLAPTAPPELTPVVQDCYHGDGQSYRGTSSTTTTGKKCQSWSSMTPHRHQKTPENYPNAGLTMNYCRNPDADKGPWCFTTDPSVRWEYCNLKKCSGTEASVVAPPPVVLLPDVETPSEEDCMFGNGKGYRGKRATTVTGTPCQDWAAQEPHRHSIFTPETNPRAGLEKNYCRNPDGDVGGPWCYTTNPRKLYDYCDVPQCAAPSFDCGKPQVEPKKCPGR
Procedure: as §1, §2, §3
Plasmin catalytic activity was determined using the chromogenic substrate, S-2366 [L-pyroglutamyl-L-prolyl-L-arginine-p-nitroaniline hydrochloride], which was obtained from DiaPharma group. The substrate was made up in deionized water followed by dilution in HBSA prior to the assay in which the final concentration was 300 micromolar (about 2.5-times Km). Purified human plasmin was obtained from Enzyme Research Laboratories, Inc. The enzyme was diluted into HBSA prior to assay in which the final concentration was 1.0 nM.

Ki [2] [nM]	Ki [3] [nM]	Ki [4] [nM]	Ki [6] [nM]	Compound	Ki [1] [nM]	Ki [5] [nM]
100 to 250	–	–	–	COC(=O)CCC(N)(Cc1cccc(C(=N)N)c1)C(=O)NCC(=O)NCc1ccc(C(=N)N)s1 (stereo not drawn) [(Me)E(alpha-(3-Amdn)Bn)-G-(2-Amdn)thiophene-5MeAm]	–	–
100 to 250	500 to 2500	500 to 2500	500 to 2500	N=C(N)c1cccc(CC(N)(CCC(=O)O)C(=O)NCC(=O)NCc2ccc(C(=N)N)s2)c1 (stereo not drawn) [E(alpha-(3-Amdn)Bn)-G-(2-Amdn)thiophene-5MeAm]	–	–
< 100	500 to 2500	> 2500	> 2500	COC(=O)N[C@](CCC(=O)OC(C)(C)C)(Cc1cccc(C(=N)N)c1)C(=O)NCC(=O)NCc1ccc(C(=N)N)s1 [MeOCO(t-Bu)E(R)(alpha-(3-Amdn)Bn)-G-(2-Amdn)thiophene-5-MeAm]	–	–
250 to 500	> 2500	> 2500	–	COC(=O)CC[C@](Cc1cccc(C(=N)N)c1)(NC(=O)OC)C(=O)NCC(=O)NCc1nc(C(=N)N)cs1 [MeOCO-(Me)E(α-(3-Amdn)Bn)-G-(4-Amdn)thiazole-2-MeAm]	–	–
100 to 250	> 2500	250 to 500	–	COC(=O)NC(CCC(=O)OC(C)(C)C)(Cc1cccc(C(=N)N)c1)C(=O)NCC(=O)NCc1ccc(C(=N)N)cc1 (stereo not drawn) [MeOCO-E(O-t-Butyl)(alpha-(3-Amdn)Bn)-G-(4-Amdn)BnAm]	–	–
100 to 250	250 to 500	> 2500	–	COC(=O)NC(CCS(C)(=O)=O)(Cc1ccnc(N)c1)C(=O)NCC(=O)NCc1ccc(C(=N)N)s1 (stereo not drawn) [N-MeOCO-(α-(3-Am)4-pyrMe)M(O2)-G-(2-Amdn)thiophene-5-MeAm]	–	–
< 100	> 2500	500 to 2500	500 to 2500	N=C(N)c1cccc(C[C@@]2(C(=O)NCC(=O)NCc3ccc(C(=N)N)s3)CCC(=O)N2)c1 [α-(3-Amdn)BnPyro-G-(2-Amdn)thiophene-5-MeAm]	–	–
< 100	500 to 2500	–	> 2500	alpha-(3-amidinoBn)MeSO2-G-(2-Amdn)thiophene-5-MeAm	> 2500	–
250 to 500	–	250 to 500	–	iBoc-(Me)E(R)(alpha-(3-Amdn)Bn)-G-(2-Amdn)thiophene-5MeAm	–	–

Compound	Ki [2] [nM]	Ki [3] [nM]	Ki [4] [nM]	Ki [6] [nM]	Ki [1] [nM]	Ki [5] [nM]
3(3-Amdn)Bn-3(Methsulfone)hydantoin-G-(2-Amdn)thiazole-2-MeAm	100 to 250	> 2500	> 2500	–	> 2500	> 2500
